Drawing on PubChem BioAssay AID330 (DTP/NCI, 2004), this text covers T/C for 23 molecules.

Several values for one entry are separate records, joined by “and”; a condition that tells them apart may be missing. Equal entries are not always repeated. Toxic doses and inconclusive results are not listed. Peptide text beside a SMILES is read from it. * marks the point of attachment. Bn = c1ccc(C*)cc1

In the experiment the test system is P388 leukemia ip, CD2F1 mice, survival T/C. The experiment in a line: NCI In Vivo Anticancer Drug Screen. Data for tumor model P388 Leukemia (intraperitoneal) in CD2F1 (CDF1) mice. Conditions: endpoint: median survival time, higher = longer survival. A digest of the protocol:
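Mice carrying the transplanted tumor received test compound or vehicle. Survival was recorded in each group, and the value is the treated-group measurement divided by that of the vehicle-treated control group.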

The mark [1] stands for this setting: dose: 6.25 mg/kg/injection, schedule: Q01DX009 (ip), vehicle: Klucel (hydroxypropylcellulose) (HPC).
Where [2] appears, read: dose: 12.5 mg/kg/injection, schedule: Q01DX009 (ip), vehicle: Klucel (hydroxypropylcellulose) (HPC).
Where [3] appears, read: dose: 25.0 mg/kg/injection, schedule: Q01DX009 (ip), vehicle: Klucel (hydroxypropylcellulose) (HPC).
[4] abbreviates: dose: 60.0 mg/kg/injection, schedule: Q01DX005 (ip), vehicle: Klucel (hydroxypropylcellulose) (HPC).
[5] abbreviates: dose: 120.0 mg/kg/injection, schedule: Q01DX005 (ip), vehicle: Klucel (hydroxypropylcellulose) (HPC).
[6] abbreviates: dose: 240.0 mg/kg/injection, schedule: Q01DX005 (ip), vehicle: Klucel (hydroxypropylcellulose) (HPC).
[7] abbreviates: dose: 100.0 mg/kg/injection, schedule: Q01DX009 (ip), vehicle: saline with Tween-80.
Setting [8] is: dose: 200.0 mg/kg/injection, schedule: Q01DX009 (ip), vehicle: saline with Tween-80.
Setting [9] is: dose: 50.0 mg/kg/injection, schedule: Q01DX009 (ip), vehicle: saline with Tween-80.
Where [10] appears, read: dose: 60.0 mg/kg/injection, schedule: Q01DX005 (ip), vehicle: saline with Tween-80.
[11] abbreviates: dose: 100.0 mg/kg/injection, schedule: Q01DX001 (ip), vehicle: Klucel (hydroxypropylcellulose) (HPC).
[12] abbreviates: dose: 200.0 mg/kg/injection, schedule: Q01DX001 (ip), vehicle: Klucel (hydroxypropylcellulose) (HPC).
Where [13] appears, read: dose: 400.0 mg/kg/injection, schedule: Q01DX001 (ip), vehicle: Klucel (hydroxypropylcellulose) (HPC).
Where [14] appears, read: dose: 120.0 mg/kg/injection, schedule: Q01DX005 (ip), vehicle: saline with Tween-80.
Where [15] appears, read: dose: 240.0 mg/kg/injection, schedule: Q01DX005 (ip), vehicle: saline with Tween-80.
Setting [16] is: dose: 50.0 mg/kg/injection, schedule: Q01DX009 (ip), vehicle: saline.
[17] abbreviates: dose: 100.0 mg/kg/injection, schedule: Q01DX009 (ip), vehicle: saline.
Where [18] appears, read: dose: 200.0 mg/kg/injection, schedule: Q01DX009 (ip), vehicle: saline.

Take `CCN(CC)C1=NS(=O)(=O)c2ccccc2C(NN)=C1C`: the T/C runs as follows: under setting [1], 90 % of control; under setting [2], 90 % of control; under setting [3], 104 % of control; (dose: 100.0 mg/kg/injection, schedule: Q04DX002 (ip), vehicle: saline with Tween-80) 92 % of control; (dose: 200.0 mg/kg/injection, schedule: Q04DX002 (ip), vehicle: saline with Tween-80) 99 % of control; (dose: 400.0 mg/kg/injection, schedule: Q04DX002 (ip), vehicle: saline with Tween-80) 97 % of control.

As to `C=C1CC2(CC[N+](Cc3ccccc3)(Cc3ccccc3)CC2)OC1=O`, the T/C (dose: 12.5 mg/kg/injection, schedule: Q01DX005 (ip), vehicle: saline) was 103 % of control; the T/C (dose: 25.0 mg/kg/injection, schedule: Q01DX005 (ip), vehicle: saline) was 103 % of control; the T/C (dose: 50.0 mg/kg/injection, schedule: Q01DX005 (ip), vehicle: saline) was 102 % of control and 97 % of control.

Turning to `NCC(=O)NCC(=O)NC(Cc1ccc(OCc2ccccc2)cc1)C(=O)NC(CCCN=C(N)N)C(=O)O` (configuration not stated) (H-GGY(Bn)R-OH; configuration not given here), the T/C (dose: 60.0 mg/kg/injection, schedule: Q01DX005 (ip), vehicle: saline) is 95 % of control; the T/C (dose: 120.0 mg/kg/injection, schedule: Q01DX005 (ip), vehicle: saline) was 100 % of control; the T/C (dose: 240.0 mg/kg/injection, schedule: Q01DX005 (ip), vehicle: saline) is 100 % of control.

Regarding `COC1=NC2=NC(OC)=NC3=C(Br)C=C(Br)C(=N1)N23`, the T/C is, setting by setting: under setting [4], 91 % of control; under setting [5], 92 % of control; under setting [6], 87 % of control.

Regarding `O=C(NC(CO)C(=O)OCc1ccccc1)OCc1ccccc1` (configuration not stated), the T/C was 90 % of control under setting [7]; 90 % of control under setting [8]; 95 % of control (dose: 400.0 mg/kg/injection, schedule: Q01DX009 (ip), vehicle: saline with Tween-80).

Turning to `O=C1NN=C(c2ccccc2)CS1`, the T/C is 98 % of control under setting [9] and 101 % of control under setting [7].

On to `Cc1ccc(-c2ccc(Nc3c4ccccc4nc4ccccc34)cc2)cn1`, for which the T/C (dose: 25.0 mg/kg/injection, schedule: Q01DX005 (ip), vehicle: distilled water + Tween-80) was 106 % of control; the T/C (dose: 50.0 mg/kg/injection, schedule: Q01DX005 (ip), vehicle: distilled water + Tween-80) is 117 % of control; the T/C (dose: 100.0 mg/kg/injection, schedule: Q01DX005 (ip), vehicle: distilled water + Tween-80) is 151 % of control; the T/C (dose: 200.0 mg/kg/injection, schedule: Q01DX005 (ip), vehicle: distilled water + Tween-80) was 193 % of control.

With `COc1cc(C2CC(C)(OC)Oc3cc4c(cc32)OCO4)cc(OC)c1O` (configuration not stated), the T/C is 90 % of control (dose: 15.0 mg/kg/injection, schedule: Q01DX005 (ip), vehicle: saline with Tween-80); 88 % of control (dose: 30.0 mg/kg/injection, schedule: Q01DX005 (ip), vehicle: saline with Tween-80); 89 % of control under setting [10].

Regarding `COC(=O)/C=C(\O)C(Cc1cc(OC)c2c(c1O)C(=O)c1c(OC)cccc1C2=O)C(=O)OC` (configuration not stated), the T/C is 101 % of control (dose: 100.0 mg/kg/injection, schedule: Q01DX001 (ip), vehicle: saline with Tween-80); 102 % of control (dose: 200.0 mg/kg/injection, schedule: Q01DX001 (ip), vehicle: saline with Tween-80); 97 % of control (dose: 400.0 mg/kg/injection, schedule: Q01DX001 (ip), vehicle: saline with Tween-80).

Regarding `c1ccc2c(c1)OCc1nccn1-2`, the T/C is, setting by setting: under setting [4], 99 % of control; under setting [5], 100 % of control.

`O=C(Nc1ccccc1)c1ccco1`: the T/C under setting [11] is 106 % of control, the T/C under setting [12] was 102 % of control and the T/C under setting [13] was 96 % of control.

Regarding `O=P1(Oc2ccccc2)NC2CCCCC2N1` (configuration not stated), the T/C is, setting by setting: (dose: 12.5 mg/kg/injection, schedule: Q01DX005 (ip), vehicle: Klucel + Tween-80) 95 % of control; (dose: 25.0 mg/kg/injection, schedule: Q01DX005 (ip), vehicle: Klucel + Tween-80) 97 % of control; (dose: 50.0 mg/kg/injection, schedule: Q01DX005 (ip), vehicle: Klucel + Tween-80) 95 % of control; under setting [11], 94 % of control.

For `N=c1nc(N)nc2c3cc(Br)ccc3nnn12`, the T/C under setting [10] is 113 % of control, the T/C under setting [14] was 117 % of control and the T/C under setting [15] is 108 % of control.

`CCOC(=O)C1(CN2C(=O)c3ccccc3C2=O)C(=O)Nc2ccccc21` (configuration not stated): the T/C is 87 % of control (dose: 50.0 mg/kg/injection, schedule: Q01DX009 (ip), vehicle: Klucel (hydroxypropylcellulose) (HPC)); 87 % of control (dose: 100.0 mg/kg/injection, schedule: Q01DX009 (ip), vehicle: Klucel (hydroxypropylcellulose) (HPC)); 87 % of control (dose: 200.0 mg/kg/injection, schedule: Q01DX009 (ip), vehicle: Klucel (hydroxypropylcellulose) (HPC)).

For the molecule `O=C(O)CCC(=O)CCl`, the T/C (dose: 3.13 mg/kg/injection, schedule: Q01DX009 (ip), vehicle: saline) is 109 % of control; the T/C (dose: 25.0 mg/kg/injection, schedule: Q04DX003 (ip), vehicle: saline with Tween-80) is 104 % of control; the T/C (dose: 50.0 mg/kg/injection, schedule: Q04DX003 (ip), vehicle: saline with Tween-80) was 108 % of control.

In the case of `CN(C)CCNc1cccc2c1C(=O)c1cccc(NCCN(C)C)c1C2=O`, the T/C (dose: 1.88 mg/kg/injection, schedule: Q01DX009 (ip), vehicle: water) is 99 % of control; the T/C (dose: 3.75 mg/kg/injection, schedule: Q01DX009 (ip), vehicle: saline) was 101 % of control; the T/C (dose: 3.75 mg/kg/injection, schedule: Q01DX009 (ip), vehicle: water) was 98 % of control; the T/C (dose: 7.5 mg/kg/injection, schedule: Q01DX009 (ip), vehicle: saline) is 102 % of control; the T/C (dose: 7.5 mg/kg/injection, schedule: Q01DX009 (ip), vehicle: water) was 110 % of control; the T/C (dose: 15.0 mg/kg/injection, schedule: Q01DX009 (ip), vehicle: saline) is 98 % of control. Moreover, the T/C is, setting by setting: (dose: 15.0 mg/kg/injection, schedule: Q01DX009 (ip), vehicle: water) 108 % of control; (dose: 30.0 mg/kg/injection, schedule: Q01DX009 (ip), vehicle: water) 106 % of control.

In the case of `O=C(CCN1C(=O)NC(c2ccccc2)(c2ccccc2)C1=O)NCCN1CCOCC1`, the T/C reads like this: under setting [10], 96 % of control; under setting [14], 100 % of control; under setting [15], 102 % of control.

Regarding `CC(C)(C)c1ccc2c(c1)C(O)(c1ccccc1)C1OC1(C(C)(C)C)C2=O` (configuration not stated), the T/C under setting [16] is 106 % of control, the T/C under setting [17] was 100 % of control and the T/C under setting [18] is 91 % of control.

Consider `Oc1c(Cl)cc(Cl)cc1C1CC(c2ccccc2Cl)=NN1c1ccccc1` (configuration not stated), for which the T/C is, setting by setting: under setting [9], 96 % of control; under setting [7], 95 % of control; under setting [8], 97 % of control.

As to `CCSC(=S)Nc1nc2ccc(C)cc2s1`, the T/C is, setting by setting: under setting [1], 107 % of control; under setting [2], 89 % of control; under setting [3], 103 % of control.

`Cn1c(=O)c2c(ncn2N)n(C)c1=O`: the T/C by setting is: under setting [4], 111 % of control; under setting [5], 102 % of control; under setting [6], 107 % of control.

With `CCOC(=O)Cn1c(O)c(C2=c3cc(Br)ccc3=NC2=O)sc1=O`, the T/C under setting [11] was 95 % of control, the T/C under setting [12] is 98 % of control and the T/C under setting [13] is 99 % of control.

On to `Nc1cc(N)c(N=Nc2cccc3c(S(=O)(=O)O)cccc23)cc1N=Nc1cc([N+](=O)[O-])ccc1O`, for which the T/C by setting is: under setting [16], 109 % of control; under setting [17], 109 % of control; under setting [18], 96 % of control.
